The values below come from patent US20250017927A1, “PHARMACEUTICAL COMPOSITION AND USE THEREOF” (SHANGHAI ALLIST PHARMACEUTICALS CO., LTD., priority 2021, published 2025).

A word on the IC50: it is the concentration needed to halve the response being measured. A low value points to greater potency.

The subject of one data set is Ba/F3 EGFR G719S. Briefly: Proliferation inhibition, CellTiter Glo, Ba/F3 EGFR G719S. The format is cell-based, mouse. To be noted: for IC50: Mus musculus, Ba/F3 EGFR G719S stably transfected cells, 72 hours. From the text: (§1) The proliferation inhibition activity of the compound (furmonertinib mesilate) on four cells of Ba/F3 EGFR G719S, Ba/F3 EGFR G724S, Ba/F3 EGFR S768I, and Ba/F3 EGFR L861Q stably expressing EGFR rare mutation proteins, one cell of Ba/F3 EGFR G719S/T263P stably expressing EGFR double mutation proteins, and three cells of Ba/F3 ERBB2 A775_G776insYVMA, Ba/F3 ERBB2 V777_G778insGC, and Ba/F3 ERBB2 P780_Y781insGSP stably expressing different ERBB2 exon 20 insertion mutation proteins in mouse pro-B cells Ba/F3 in vitro was determined by the CellTiter Glo method.
(§2) Cell source: Ba/F3 EGFR G719S, Ba/F3 EGFR G724S, Ba/F3 EGFR S768I, Ba/F3 EGFR L861Q, Ba/F3 EGFR G719S/T263P, Ba/F3 ERBB2 A775_G776insYVMA, Ba/F3 ERBB2 V777_G778insGC, Ba/F3 ERBB2 P780_Y781insGSP cells were provided by KYinno Biotechnology (Beijing) Co., Ltd.
(§3) Ba/F3 EGFR G719S, Ba/F3 EGFR G724S, Ba/F3 EGFR S768I, Ba/F3 EGFR L861Q, Ba/F3 EGFR G719S/T263P, Ba/F3 ERBB2 A775_G776insYVMA, Ba/F3 ERBB2 V777_G778insGC, Ba/F3 ERBB2 P780_Y781insGSP cells were cultivated in RPMI1640 complete culture medium containing 10% fetal bovine serum. […]
(§4) The CellTiter-Glo reagent (a luciferase ATP bioluminescence detection reagent, commercially available from Promega) was thawed, the 96-well plates inoculated with the cells were taken out from the CO2 constant temperature incubator, and equilibrated to room temperature (about 30 minutes), 100 μL CellTiter-Glo reagent was added to each well, the cells were lyzed by shaking on an orbital shaker for 5 minutes, […] at room temperature for 20 minutes to wait for the luminescence intensity to stabilize, then the luminescence intensity (Lum) was determined with a microplate reader. The cell survival rate at each concentration of the compound was calculated.
(§5) The data were analyzed using GraphPad Prism 7.0 software, fitted with nonlinear S-curve regression to give a dose-effect curve, and IC50 values were calculated therefrom, as shown in Table 1.

A further data set concerns Ba/F3 EGFR G724S. Put plainly: Proliferation inhibition, CellTiter Glo, Ba/F3 EGFR G724S. The format is cell-based, mouse. The note with it: for IC50: Mus musculus, Ba/F3 EGFR G724S stably transfected cells, 72 hours.
Description: as §1, §2, §3, §4, §5
(In general: ATP-based viability assays read luminescence as a measure of living cells.)

The next data set deals with Ba/F3 EGFR S768I. Put plainly: Proliferation inhibition, CellTiter Glo, Ba/F3 EGFR S768I. It is filed as cell-based, mouse. To be noted: for IC50: Mus musculus, Ba/F3 EGFR S768I stably transfected cells, 72 hours.
Description: as §1, §2, §3, §4, §5

For a further data set, the system named is Ba/F3 EGFR L861Q. Briefly: Proliferation inhibition, CellTiter Glo, Ba/F3 EGFR L861Q. To be noted: for IC50: Mus musculus, Ba/F3 EGFR L861Q stably transfected cells, 72 hours. It is filed as cell-based, mouse.
Description: as §1, §2, §3, §4, §5

Another data set concerns Ba/F3 EGFR G719S/T263P. Put plainly: Proliferation inhibition, CellTiter Glo, Ba/F3 EGFR G719S/T263P. The format is cell-based, mouse. The note with it: for IC50: Mus musculus, Ba/F3 EGFR G719S/T263P stably transfected cells, 72 hours.
Description: as §1, §2, §3, §4, §5

The subject of data set [1] is Ba/F3 ERBB2 A775_G776insYVMA. Put plainly: Proliferation inhibition, CellTiter Glo, Ba/F3 ERBB2 A775_G776insYVMA. It is filed as cell-based, mouse. The note with it: for IC50: Mus musculus, BaF3, Ba/F3 ERBB2 A775_G776insYVMA stably transfected cells, 72 hours.
Description: as §1, §2, §3, §4, §5

Data set [2] relates to Ba/F3 ERBB2 V777_G778insGC. Briefly: Proliferation inhibition, CellTiter Glo, Ba/F3 ERBB2 V777_G778insGC. It is filed as cell-based, mouse. To be noted: for IC50: Mus musculus, BaF3, Ba/F3 ERBB2 V777_G778insGC stably transfected cells, 72 hours.
Description: as §1, §2, §3, §4, §5

The subject of data set [3] is Ba/F3 ERBB2 P780_Y781insGSP. Briefly: Proliferation inhibition, CellTiter Glo, Ba/F3 ERBB2 P780_Y781insGSP. The note with it: for IC50: Mus musculus, BaF3, Ba/F3 ERBB2 P780_Y781insGSP stably transfected cells, 72 hours. The format is cell-based, mouse.
Description: as §1, §2, §3, §4, §5

The test system of data set [4] is Ba/F3 ERBB2 V777_G778insGC xenograft. Put plainly: Anti-tumor effect in Ba/F3 ERBB2 V777_G778insGC (KC-1410) cell xenograft model. The note with it: for anti-tumor activity: B-NDG mice. The format is in vivo. The source says: This study was used for evaluate the anti-tumor efficacy of three compounds alone in the female (B-NDG) immune deficiency mice bearing tumors of Ba/F3 ERBB2 V777_G778insGC engineered cells.
Experimental animals: B-NDG mice, female, 6-8 weeks, and weighing 18-20 g.
Animal modeling and random grouping: Ba/F3 ERBB2 V777_G778insGC cells were cultivated, cells were collected, and re-suspended and counted in serum-free medium, the re-suspended cells with the addition of a matrigel at 1:1 were subcutaneous inoculated at 1×10^6 cells/0.1 mL in B-NDG mice. When the average tumor volume was about 80-120 mm^3, the animals were randomly grouped into four experiment groups according to the tumor size. Each group contained 12 mice.
The experimental scheme: B-NDG mice were subcutaneously inoculated with Ba/F3 ERBB2 V777_G778insGC cells to establish a cell-line-derived xenograft model.
The curves for the tumor volume change of four experimental groups were shown in FIG. 3, and the curves for the body weight change of four experimental groups were shown in FIG. 4.

The conditions of data set [5]: orally once per day, 20 mg-240 mg; cited from earlier work.
For data set [6], the system named is EGFR T790M positive advanced non-small cell lung cancer. The note with it: oral 80 mg daily dose, patients with progressive disease after prior systematic anti-tumor therapy; cited from earlier work.
Data set [7] relates to Ba/F3 ERBB2 A775_G776insYVMA subcutaneous xenograft. Put plainly: Anti-tumor effect in Ba/F3 ERBB2 A775_G776insYVMA CDX tumor model. The note with it: 30 mg/kg oral once per day for two weeks.
Description: Experimental animals: BALB/c nude mice, female, 8-9 weeks (mouse week-old when tumor cells were inoculated), and weighing 13.7-17.7 g, purchased from the Shanghai branch of Beijing Vital River Laboratory Animal Technology Co., Ltd.
Animal modeling and random grouping: Ba/F3 ERBB2 A775_G776insYVMA cells were cultivated, amplified to two T175 cm^2 culture flasks, cells were collected, and resuspended and counted in serum-free medium DMEM with the addition of a matrix gel at 1:1, and inoculated at 2×10^6 cells/0.1 mL in Balb/c nude mouse right front scapular subcutaneous. When the average tumor volume was about 160 mm^3, the animals were randomly grouped into three experiment groups according to the tumor size. Each group contained 6 mice. The grouping day was defined as Day 0, i.e., DO.
The experimental scheme: BALB/c nude mice were subcutaneously inoculated with Ba/F3 ERBB2 A775_G776insYVMA cells, and a cell line heterograft tumor model was established. The experiment was divided into 30 mg/kg group of AZD9291, 30 mg/kg group of furmonertinib mesilate and a vehicle control group, wherein each group contained 6 animals, orally administered with the administration volume of 10 uL/g, and the vehicle control group was administered with the same amount of vehicle, the administration was carried out once per day and lasted for two weeks. During the whole experiment, the body weight and the tumor sizes of the mice were measured twice each week, and whether or not the presence of toxic reactions was observed.
Tumor Volume (TV) was calculated by: TV=½×a×b×b, where a and b represented the length and the width of tumor, respectively.

Turning to `C=CC(=O)Nc1cc(Nc2nccc(-c3cn(C)c4ccccc34)n2)c(OC)cc1N(C)CCN(C)C` [AZD9291, reference compound], the half-inhibitory concentration (IC50) in the data set on Ba/F3 EGFR G719S is 68 nM; in the data set with Ba/F3 EGFR G724S, 139 nM; in the data set with Ba/F3 EGFR S768I, 137 nM; with Ba/F3 EGFR L861Q it was 41 nM; with Ba/F3 EGFR G719S/T263P, 191 nM; in data set [1] it was 489 nM. In addition, the IC50 in [2] stood at 77 nM; in data set [3], 96 nM.
With `C=CC(=O)Nc1cc(Nc2nccc(-c3cn(C)c4ccccc34)n2)c(OCC(F)(F)F)nc1N(C)CCN(C)C` [furmonertinib mesilate, N-{2-{[2-(dimethylamino)ethyl](methyl)amino}-6-(2,2,2-trifluoroethoxy)-5-{[4-(1-methyl-1H-indol-3-yl)pyrimidin-2-yl]amino}pyridin-3-yl}acrylamide], the proliferation inhibition activity result is reported as “good proliferation inhibition activity” in the data set with Ba/F3 EGFR G719S (Ba/F3 EGFR G719S, result in words); “good proliferation inhibition activity” in the data set with Ba/F3 EGFR G724S (Ba/F3 EGFR G724S, result in words); “good proliferation inhibition activity” with Ba/F3 EGFR S768I (Ba/F3 EGFR S768I, result in words); “good proliferation inhibition activity” in the data set with Ba/F3 EGFR L861Q (Ba/F3 EGFR L861Q, result in words); “good proliferation inhibition activity” in the data set with Ba/F3 EGFR G719S/T263P (Ba/F3 EGFR G719S/T263P, result in words); “good proliferation inhibition activity” in data set [1] (Ba/F3 ERBB2 A775_G776insYVMA, result in words). In addition, the proliferation inhibition activity result is given as “good proliferation inhibition activity” in data set [2] (Ba/F3 ERBB2 V777_G778insGC, result in words) and “good proliferation inhibition activity” in data set [3] (Ba/F3 ERBB2 P780_Y781insGSP, result in words). The IC50 in the data set with Ba/F3 EGFR G719S stood at 19 nM; in the data set on Ba/F3 EGFR G724S, 35 nM; with Ba/F3 EGFR S768I, 33 nM; in the data set with Ba/F3 EGFR L861Q, 13 nM; with Ba/F3 EGFR G719S/T263P it was 37 nM; in data set [1] it was 118 nM. The IC50 came to 25 nM in data set [2] and 33 nM in data set [3]. Moreover, the results for the anti-tumor activity entry in data set [4] (15 mg/kg oral once per day for two weeks), in data set [4] (30 mg/kg oral once per day for two weeks) and in data set [4] (50 mg/kg oral once per day for two weeks) were “moderate anti-tumor activity”, “extremely significant anti-tumor activity” and “extremely significant anti-tumor activity”, respectively. The “effect on the body weight of mice” value in [4] (15, 30 and 50 mg/kg groups) was “little effect on the body weight”. Moreover, the safety entry is on record as “good safety” in data set [4] (15, 30 and 50 mg/kg groups); “better safety” in data set [7]. In data set [5], the “adverse events of subjects” value is recorded as “mild or moderate”. In addition, the dose-limiting toxicity entry in data set [5] was “does not occur”. Besides, the dose-related toxic reaction entry in [5] is “does not occur”. For the same compound, the tolerance and safety entry in [5] was “good”. Besides, the anti-tumor effect entry is “relatively good anti-tumor effect” in data set [6] and “good anti-tumor effect” in [7] (BALB/c female nude mice). Further, the “effect on the body weight of nude mice” value in [7] is “less effect on the body weight”.
